Data reported in publication PMC6100582 (Molecules : A Journal of Synthetic Chemistry and Natural …, 2018).
Converted amounts (≈) assume the structure as drawn. Where two headings read alike, the source gives them in different places.

Tests used:
[1] = tested on: Candida albicans ATCC 90028; assay: In vitro antifungal susceptibility testing (MIC determination); assay type: cell-based; conditions: ATCC90028
Sindbis Virus = assay: microbe, parasite or virus in culture; assay type: cell-based; conditions: Vero
in vitro = conditions: African green monkey
Yellow Fever Virus = assay: microbe, parasite or virus in culture; assay type: cell-based; conditions: Vero
Punta Toro Virus = assay: microbe, parasite or virus in culture; assay type: cell-based
Coxsackie Virus B4 = assay: Antiviral activity in Vero cell cultures; assay type: cell-based; conditions: Enterovirus B
Para-Influenza-3 Virus = assay: organism not typed; assay type: cell-based
Reovirus-1 = assay: Antiviral activity in Vero cell cultures; assay type: cell-based
Vero cell cultures = conditions: African green monkey
[2] = tested on: Hap1 (chronic myeloid leukemia); assay: Antiproliferative screening (cytostatic activity); assay type: cell-based; conditions: Homo sapiens, HAP1, 72 h, read-out: IC50 Hap1
Procedure: (§1) Cytostatic activity was evaluated in vitro on nine different types of human tumor cell lines: Capan-1, Hap1, HCT-116, and NCI-H460, as well as hematological tumors such as DND-41, HL-60, K-562, MM.1S and Z-138 as described previously. All human tumor cell lines were acquired from the American Type Culture Collection (ATCC, Manassas, VA, USA), except for the DND-41 cell line which was purchased from the Deutsche Sammlung von Mikroorganismen und Zellkulturen (DSMZ Leibniz-Institut, Braunschweig, Germany) and the Hap1 cell line which was purchased from Horizon Discovery (Waterbeach, UK). Capan-1, Hap1, HL-60, K-562, Z-138, MM.1S and DND-41 were cultured in Iscove′s Modified Dulbecco′s Medium (IMDM, Gibco Life Technologies, Gaithersburg, MD, USA), HCT-116 were grown in McCoy′s 5A Medium (Gibco Life Technologies) and NCI-H460 were cultured in RPMI (Gibco Life Technologies). All media were supplemented with 10% FBS (HyClone, GE Healthcare Life Sciences, USA). Adherent cell lines HCT-116, Hap1, NCI-H460, and Capan-1 cells were seeded at a density between 400 and 1250 cells per well, in 384-well, black-walled, clear-bottomed tissue culture plates (Greiner Bio-One, Kremsmünster, Germany). After overnight incubation, cells were treated with test compounds at four different concentrations ranging from 100 to 0.8 µM. Suspension cell lines HL-60, K-562, Z-138, MM.1S, and DND-41 were seeded at densities ranging from 3000 to 10,000 cells per well in 384-well, black-walled, clear-bottomed tissue culture plates containing test compounds at the same four concentrations. The plates were incubated and monitored at 37 °C for 72 h in an IncuCyte (Essen BioScience Inc., Ann Arbor, MI, USA) for real-time imaging. Images were taken every 3 h, with one field image per well under 10× magnification. All compounds were tested with duplicate data points and averaged. […]

[3] = tested on: HL-60 (acute myeloid leukemia); assay: Antiproliferative screening (cytostatic activity); assay type: cell-based; conditions: Homo sapiens, HL-60, 72 h, read-out: IC50 HL-60
Procedure: as §1

[4] = tested on: Escherichia coli ATCC 10536; assay: Minimum biofilm eradication assay; assay type: cell-based
Procedure: (§2) MBECs of fumardiamides 4a–f and succindiamides 5a–f were determined as follows. Each well (96-well plate) was filled with 100 µl of bacterial (10^7 CFU/mL) or yeast (5 × 10^6 CFU/mL) suspension. When the inhibition of yeast biofilm formation was tested, the wells were pre-treated with fetal bovine serum (FBS) (250 µl per well). Negative controls contained broth only. Positive controls were performed using standard antimicrobial drugs gentamycin (Gen) and Amph, respectively. […] Following incubation period, each well was aspirated, washed three times and vigorously shaken to remove all non-adherent bacteria/yeast. The remaining attached cells were fixed with methanol (15 min) and the plates were left to dry overnight. Formed biofilm was stained with crystal violet (1%, 5 min). Excess stain was rinsed by placing the plate under running tap water and the plates were left to dry. Adherent cells were solubilized using ethanol. The absorbance was read at 570 nm. The MBEC value represents the lowest dilution of a compound at which bacteria fail to grow.

[5] = tested on: Acinetobacter baumannii MFBF 10913; assay: Minimum biofilm eradication assay; assay type: cell-based
Procedure: as §2

[6] = tested on: Enterococcus faecalis ATCC 29212; assay: Minimum biofilm eradication assay; assay type: cell-based
Procedure: as §2

[7] = tested on: Pseudomonas aeruginosa ATCC 27853; assay: Minimum biofilm eradication assay; assay type: cell-based
Procedure: as §2

[8] = tested on: Bacillus cereus ATCC 11778; assay: Minimum biofilm eradication assay; assay type: cell-based
Procedure: as §2

[9] = tested on: Bacillus subtilis ATCC 6633; assay: Minimum biofilm eradication assay; assay type: cell-based
Procedure: as §2

[10] = tested on: Proteus mirabilis MFBF 10430; assay: Minimum biofilm eradication assay; assay type: cell-based
Procedure: as §2

[11] = tested on: Salmonella enteritidis MFBF 11945; assay: Minimum biofilm eradication assay; assay type: cell-based
Procedure: as §2

[12] = tested on: Staphylococcus aureus ATCC 6538; assay: Minimum biofilm eradication assay; assay type: cell-based
Procedure: as §2

[13] = tested on: Serratia marcescens ATCC 10905; assay: Minimum biofilm eradication assay; assay type: cell-based
Procedure: as §2

[14] = tested on: NCI-H460 (lung carcinoma); assay: Antiproliferative screening (cytostatic activity); assay type: cell-based; conditions: Homo sapiens, NCI-H460, 72 h, read-out: IC50 NCI-H460
Procedure: (§3) All human tumor cell lines were acquired from the American Type Culture Collection (ATCC, Manassas, VA, USA), except for the DND-41 cell line which was purchased from the Deutsche Sammlung von Mikroorganismen und Zellkulturen (DSMZ Leibniz-Institut, Braunschweig, Germany) and the Hap1 cell line which was purchased from Horizon Discovery (Waterbeach, UK). […] All media were supplemented with 10% FBS (HyClone, GE Healthcare Life Sciences, USA). […] After overnight incubation, cells were treated with test compounds at four different concentrations ranging from 100 to 0.8 µM. […] Images were taken every 3 h, with one field image per well under 10× magnification. All compounds were tested with duplicate data points and averaged.

[15] = tested on: K-562 (chronic myeloid leukemia); assay: Antiproliferative screening (cytostatic activity); assay type: cell-based; conditions: Homo sapiens, K562, 72 h, read-out: IC50 K-562
Procedure: as §3

MM.1S (multiple myeloma) = assay: Antiproliferative screening (cytostatic activity); assay type: cell-based; conditions: Homo sapiens, MM1.S, 72 h, read-out: IC50 MM.1S
Procedure: as §3

[16] = tested on: Z-138 (non-Hodgkin lymphoma); assay: Antiproliferative screening (cytostatic activity); assay type: cell-based; conditions: Homo sapiens, Z-138, 72 h, read-out: IC50 Z-138
Procedure: as §3

[17] = tested on: Capan-1 (pancreatic adenocarcinoma); assay: Antiproliferative screening (cytostatic activity); assay type: cell-based; conditions: Homo sapiens, CAPAN-1, 72 h, read-out: IC50 Capan-1
Procedure: as §3

[18] = tested on: HCT-116 (colorectal carcinoma); assay: Antiproliferative screening (cytostatic activity); assay type: cell-based; conditions: Homo sapiens, HCT-116, 72 h, read-out: IC50 HCT-116
Procedure: as §3

[19] = tested on: DND-41 (acute lymphoblastic leukemia); assay: Antiproliferative screening (cytostatic activity); assay type: cell-based, human; conditions: Homo sapiens, DND41, 72 h, read-out: IC50 DND-41
Procedure: as §1

[20] = tested on: Streptococcus pneumonia MFBF 10373; assay: Minimum biofilm eradication assay; assay type: cell-based, Streptococcus pneumoniae
Procedure: as §2

[21] = tested on: Acinetobacter baumannii MFBF 10913; assay: Antimicrobial susceptibility assay in vitro (MIC determination); assay type: cell-based; conditions: MFBF10913, serial microdilution, 18 h, 35 °C
Procedure: (§4) Stock solutions of the tested compounds were prepared in DMSO (10 mg/mL). […] The absorbance was recorded at 540 nm. As a positive quality control (susceptibility of strains) tetracycline hydrochloride (TC) (Sigma-Aldrich) was added into wells.

[22] = tested on: Streptococcus pneumoniae MFBF 10373; assay: as above; assay type: cell-based; conditions: MFBF10373, serial microdilution, 18 h, 35 °C
Procedure: as §4

[23] = tested on: Bacillus cereus ATCC 11778; assay: as above; assay type: cell-based; conditions: ATCC11778, serial microdilution, 18 h, 35 °C
Procedure: as §4

[24] = tested on: Bacillus subtilis ATCC 6633; assay: as above; assay type: cell-based; conditions: ATCC6633, serial microdilution, 18 h, 35 °C
Procedure: as §4

[25] = tested on: Staphylococcus aureus ATCC 6538; assay: as above; assay type: cell-based; conditions: ATCC6538
[26] = read-out: EC50 Sindbis Virus, MTS
[27] = read-out: EC50 Sindbis Virus, Visual CPE Score
[28] = read-out: EC50 Yellow Fever Virus, MTS
[29] = read-out: EC50 Yellow Fever Virus, Visual CPE Score
[30] = Vero cells, MTS, read-out: EC50 Punta Toro Virus, MTS
[31] = B4, Vero cells, MTS, read-out: EC50 Coxsackie Virus B4, MTS
[32] = B4, Vero cells, visual CPE score, read-out: EC50 Coxsackie Virus B4, Visual CPE Score
[33] = Vero cells, MTS, read-out: EC50 Para-Influenza-3 Virus, MTS
[34] = Vero cells, MTS, read-out: EC50 Reovirus-1, MTS
[35] = Vero cells, visual CPE score, read-out: EC50 Reovirus-1, Visual CPE Score

C[C@@H]1[C@H](O)[C@@H](C)/C=C/C=C/C=C/C=C/C=C/C=C/C=C/[C@H](O[C@@H]2O[C@H](C)[C@@H](O)[C@H](N)[C@@H]2O)C[C@@H]2O[C@](O)(C[C@@H](O)C[C@@H](O)[C@H](O)CC[C@@H](O)C[C@@H](O)CC(=O)O[C@H]1C)C[C@H](O)[C@H]2C(=O)O [Amph, amphotericin B, reference compound]
MIC [1]: 0.5 µg/mL (≈ 0.541 µM)

COc1c(C)c2c(c(O)c1C/C=C(\C)CCC(=O)O)C(=O)OC2 [MPA, mycophenolic acid, reference compound]
EC50 (Sindbis Virus; [26]): 12 µM | EC50 (Sindbis Virus; [27]): 1.7 µM | CC50 (in vitro): > 100 µg/mL | EC50 (Yellow Fever Virus; [28]): 0.5 µM | EC50 (Yellow Fever Virus; [29]): 0.8 µM | EC50 (Punta Toro Virus; [30]): 11 µM | EC50 (Punta Toro Virus; Vero cells, visual CPE score, read-out: EC50 Punta Toro Virus, Visual CPE Score): 8.9 µM | EC50 (Coxsackie Virus B4; [31]): > 100 µM | EC50 (Coxsackie Virus B4; [32]): > 100 µM | EC50 (Para-Influenza-3 Virus; [33]): 1 µM | EC50 (Reovirus-1; [34]): 0.6 µM | EC50 (Reovirus-1; [35]): 0.8 µM | Cytotoxicity MCC (minimum cytotoxic concentration) (Vero cell cultures): >100

COc1cc(NC(C)CCCN)c2ncccc2c1 (stereo not drawn) [PQ, primaquine, reference compound]
EC50 (Sindbis Virus; [26]): > 50 µM | EC50 (Yellow Fever Virus; [28]): > 50 µM | EC50 (Punta Toro Virus; [30]): > 50 µM | IC50 [2]: 42.7 µM | IC50 [3]: 2.2 µM | MBEC [4]: 65 µg/mL | MBEC [5]: 50 µg/mL | MBEC [6]: >100 µg/mL | MBEC [7]: 65 µg/mL | MBEC [8]: 70 µg/mL | MBEC [9]: 80 µg/mL | MBEC [10]: >100 µg/mL | MBEC [11]: 70 µg/mL | MBEC [12]: 50 µg/mL | MBEC [13]: >100 µg/mL | EC50 (Coxsackie Virus B4; B4, Vero, read-out: EC50 Coxsackie Virus B4, MTS): > 50 µM | EC50 (Para-Influenza-3 Virus; [33]): > 50 µM | IC50 [14]: 52.6 µM | IC50 [15]: 35.2 µM | IC50 (MM.1S (multiple myeloma)): 28.3 µM | IC50 [16]: 7.1 µM | IC50 [17]: 18.7 µM | IC50 [18]: 30.9 µM | IC50 [19]: 11.4 µM | EC50 (Reovirus-1; Vero, read-out: EC50 Reovirus-1, MTS): > 50 µM | MBEC [20]: 70 µg/mL

NC(=O)c1ncn([C@@H]2O[C@H](CO)[C@@H](O)[C@H]2O)n1 [RIB, ribavirin, reference compound]
EC50 (Sindbis Virus; [26]): > 250 µM | EC50 (Sindbis Virus; [27]): 11 µM | CC50 (in vitro): > 250 µg/mL | EC50 (Yellow Fever Virus; [28]): 119 µM | EC50 (Yellow Fever Virus; [29]): > 250 µM | EC50 (Punta Toro Virus; Vero, read-out: EC50 Punta Toro Virus, MTS): 85 µM | EC50 (Punta Toro Virus; Vero, read-out: EC50 Punta Toro Virus, Visual CPE Score): 111 µM | EC50 (Coxsackie Virus B4; [31]): > 250 µM | EC50 (Coxsackie Virus B4; [32]): > 250 µM | EC50 (Para-Influenza-3 Virus; Vero, read-out: EC50 Para-Influenza-3 Virus, MTS): 73 µM | EC50 (Para-Influenza-3 Virus; Vero, read-out: EC50 Para-Influenza-3 Virus, Visual CPE Score): 111 µM | EC50 (Reovirus-1; [34]): 107 µM | EC50 (Reovirus-1; [35]): 126 µM

CN(C)[C@@H]1C(O)=C(C(N)=O)C(=O)[C@@]2(O)C(O)=C3C(=O)c4c(O)cccc4[C@@](C)(O)[C@H]3C[C@@H]12 [TC, tetracycline, reference compound]
MIC [21]: 3 µg/mL (≈ 6.75 µM) | MIC [22]: 0.3 µg/mL (≈ 0.675 µM) | MIC [23]: 0.3 µg/mL (≈ 0.675 µM) | MIC [24]: 0.3 µg/mL (≈ 0.675 µM) | MIC [25]: 0.3 µg/mL (≈ 0.675 µM)

gentamycin [reference compound]
MBEC [4]: 25 µg/mL | MBEC [5]: 25 µg/mL | MBEC [6]: 50 µg/mL | MBEC [7]: 50 µg/mL | MBEC [8]: 50 µg/mL | MBEC [9]: 50 µg/mL | MBEC [10]: 50 µg/mL | MBEC [11]: 50 µg/mL | MBEC [12]: 12.5 µg/mL | MBEC [13]: 50 µg/mL | MBEC [20]: 25 µg/mL
